Experimental data reported in publication PMC11513618 (RSC Advances, 2024).
Square brackets hold non-standard residues; d marks the D form. Peptide text beside a SMILES is read from it. * marks the point of attachment. X1 = CC(=O)N[C@@H]1[C@@H](O[C@@H]2O[C@H](CO)[C@H](O)[C@H](O)[C@H]2O)[C@@H](O)[C@@H](CO[C@@H]2O[C@H](CO)[C@@H](O[C@@H]3O[C@H](CO)[C@H](O)[C@H](O[C@]4(C(=O)O)C[C@H](O)[C@@H](NC(C)=O)[C@H]([C@H](O)[C@H](O)CO)O4)[C@H]3O)[C@H](O[C@@H]3O[C@@H](C)[C@@H](O)[C@@H](O)[C@@H]3O)[C@H]2NC(C)=O)O[C@@H]1*; Phe(4-CH2SO3H) = N[C@@H](Cc1ccc(CS(=O)(=O)O)cc1)C(=O)O

Target: human P-selectin (Fc chimera) binding to PSGL-1 on U-937 monocytes (Homo sapiens, UniProt P16109)
Assay: Flow cytometry: inhibition of P-selectin-Fc chimera binding to U-937 monocytes
Type: cell-based

IC50: 11.1 µM
Structure (SMILES): CC(=O)N[C@H]1[C@H](OC[C@H]2O[C@H](O[C@H](C)[C@H](NC(=O)[C@H](CCC(=O)O)NC(=O)[C@@H]3CCCN3C(=O)[C@H](CC(C)C)NC(=O)[C@H](Cc3ccccc3)NC(=O)[C@H](CC(=O)O)NC(=O)[C@H](Cc3ccc(CS(=O)(=O)O)cc3)NC(=O)[C@H](CC(=O)O)NC(=O)[C@H](CC(C)C)NC(=O)[C@H](Cc3ccc(CS(=O)(=O)O)cc3)NC(=O)[C@H](CCC(=O)O)NC(=O)[C@H](Cc3ccc(CS(=O)(=O)O)cc3)NC(=O)[C@H](CCC(=O)O)NC(=O)[C@H](CCCCN)NC(C)=O)C(=O)N[C@@H](CCC(=O)O)C(=O)N3CCC[C@H]3C(=O)N[C@@H](CC(C)C)C(=O)O)[C@H](NC(C)=O)[C@@H](O[C@@H]3O[C@H](CO)[C@H](O)[C@H](O)[C@H]3O)[C@H]2O)O[C@H](CO)[C@@H](O[C@@H]2O[C@H](CO)[C@H](O)[C@H](O[C@]3(C(=O)O)C[C@H](O)[C@@H](NC(C)=O)[C@H]([C@H](O)[C@H](O)CO)O3)[C@H]2O)[C@@H]1O[C@@H]1O[C@@H](C)[C@@H](O)[C@@H](O)[C@@H]1O [GSnP-6] (Ac-KE[Phe(4-CH2SO3H)]E[Phe(4-CH2SO3H)]LD[Phe(4-CH2SO3H)]DFLPET(X1)EPL-OH; C-terminus assumed)
